Experimental data taken from article PMC12163635, “Synthetic Retinoids for the Modulation of Genomic and Nongenomic Processes in Neurodegenerative Diseases” (ACS Omega, 2025).
Entries after “also recorded” stand apart in the source; their conditions may differ. Like-named read-outs stand apart in the source and are kept apart here.

How the values were obtained:
SH-SY5Y cells = assay: Neurite outgrowth; type: cell-based, human; conditions: for induction of neurite outgrowth compared with ATRA: 10 nM; for fold induction at 0.01 µM: Homo sapiens, SH-SY5Y, 120 h, read-out: fold increase in neurite outgrowth
Procedure: Following the characterization of retinoids for their genomic and nongenomic activities, the ability of retinoids to differentiate and induce neurite outgrowth in the neuroblastoma cell line, SH-SY5Y cells, was examined (Figure ). Neurite outgrowth can be induced in this cell line by ATRA at 10 μM.
SH-SY5Y cell line as used in ERK phosphorylation and neurite outgrowth assays described below. The cells were grown in DMEM containing 10% FCS at 37 °C with 5% CO2. The medium was changed three times a week and the cells were passaged at 70% confluence using 0.05% trypsin-EDTA.
SH-SY5Y cells were plated at 10,000 cells/well in 12-well plates containing 16 mm acid-treated/poly L-lysine-coated glass coverslips. After 24 h, retinoids were added to the medium and tested at two different concentrations, 10 μM and 10 nM, with a final DMSO concentration of 0.01 or 0.0001%, respectively. The plates were incubated for 5 days at 5% CO2/37 °C. All retinoid concentrations were tested in triplicate. Cells were fixed using 4% paraformaldehyde and stained for β-III tubulin (1:1000; Sigma). For each neurite outgrowth experiment, 3 coverslips (in 3 wells) were used. ImageJ software with the NeuronJ plugin was used to quantify neurite outgrowth on stained cells in each of the 10 randomly selected images of each coverslip taken using a Nikon Eclipse E400 fluorescence microscope. The average neurite length was calculated for each image by dividing total neurite length by the total number of neurites per image.
All data are presented as mean ± SEM of three independent experiments with biological triplicates. Statistical analyses were performed in Microsoft Office Excel 2019 or GraphPad Prism 7.0c version (Prism, GraphPad Software, San Diego, CA). Neurite outgrowth data were analyzed by one-way ANOVA with Newman-Keuls multiple comparison test as appropriate; P value <0.05 was considered statistically significant. *P < 0.05, **P < 0.01. Data for X-Gal and ERK1/2 phosphorylation were analyzed using sigmoidal dose–response analysis of log (agonist) versus response curve (stimulation).

RARα = molecular target: T1, RARα (Homo sapiens, UniProt P10276); assay: Fluorescence competition binding assay (displacement of DC271); conditions: for Kd: stated for the RARs (RARα and RARγ) together, read-out: K D, binding to the RARs
T1 sequence (P10276 182-417): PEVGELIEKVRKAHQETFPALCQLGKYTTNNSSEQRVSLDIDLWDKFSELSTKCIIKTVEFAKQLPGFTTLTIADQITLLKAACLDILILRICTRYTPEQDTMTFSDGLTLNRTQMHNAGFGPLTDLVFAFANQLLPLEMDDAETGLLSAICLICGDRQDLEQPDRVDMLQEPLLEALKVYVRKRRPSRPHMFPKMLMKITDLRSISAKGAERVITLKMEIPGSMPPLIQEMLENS
Procedure: Fluorescence competition assays were employed to determine the relative binding affinities of each synthetic retinoid toward the LBD of the RARs. The assay is based on the potential for competitive displacement of the inherently fluorescent retinoid DC271 from the LBP by a test nonfluorescent synthetic retinoid. Changes in the fluorescence were measured following the addition of a serial dilution of the test compound and the results were plotted to generate a binding curve. […] Assays were performed for both RARα and RARγ. […] Nonlinear least-squares regression analyses were performed to calculate binding affinities and reported as binding K D, the equilibrium dissociation constant between the RAR isoform and the test synthetic retinoid.
RARα/γ proteins were expressed in BL21(DE3) cells (NEB) transformed into pET50b (Novagen) and pOPINS3C vectors, respectively, carrying the gene construct and containing a His6-3C-NusA tag or His6-3C-SUMO tag used for solubility. Transformations were carried out under standard conditions using Quick Transformation Protocol (New England Biolabs). Successful transformants were grown overnight in 2xYT media (Melford) and frozen for storage at −80 °C in 50% glycerol. Expression cultures were inoculated from glycerol stocks into 25 mL of 2xYT media (Melford) with 50 μg/mL kanamycin or 100 μg/mL ampicillin (Sigma-Aldrich) and grown overnight with shaking (37 °C, 150 rpm). The overnight cultures were transferred into 1 L expression flasks (2xYT/ampicillin 100 μg/mL or 2xYT/kanamycin 50 μg/mL) and grown with shaking at 37 °C, 150 rpm. Induction was carried out at an OD600 of 0.6–0.8, with 1 mL of 1 M IPTG (1 mM in culture), before shaking overnight (20 h) at 18 °C. The resulting cultures were spun down into pellets using an Avanti Hi-Speed centrifuge (JLA 8.1000, 4000 rpm, 30 min, 4 °C), before the supernatant was removed and the bacterial pellet were frozen at −80 °C.
RARα/γ (pET50b or pOPINS3C, BL21(DE3) (NEB)) were resuspended from pellet with 20 mL Wash Buffer (20 mM Tris-HCl, 300 mM NaCl and 20 mM imidazole, pH 8) and the resulting suspension was sonicated on ice (40% power, 2 min, repeated twice with 1 min rest in-between) before centrifuging (Avanti Hi-Speed JA25.50, 20,000 rpm, 1 h, 4 °C). Supernatants were clarified using 0.45 μm syringe filters (Thermo Fisher Scientific). Affinity chromatography and size-exclusion (SEC) chromatography were carried out on AKTA Pure25 (Cytiva). Supernatants were loaded onto the HisTrap HP column (5 mL, Cytiva) and washed using 25 mL of wash Buffer. The column was washed with Wash Buffer until UV trace returned to baseline, before RARα/γ was eluted using a gradient of Elution Buffer (20 mM Tris-HCl, 300 mM NaCl, 500 mM imidazole pH 8). The resulting protein-containing fractions were analyzed by SDS-PAGE (200 V, 30 min) using SurePAGE Bis-Tris 12% precast gels (Genscript). Protein concentrations were estimated using absorbance at 280 nm on a DS-11 spectrophotometer (Denovix) with calculated molecular weights and extinction coefficients (Expasy). RAR proteins were cleaved overnight from 3C-NusA tag or 3C-SUMO-His tag using 1 Unit/100 μg protein of HRV3C protease (Thermo Fisher Scientific) at 4 °C. Solution after digestion was loaded onto a HiLoad 16/600 Superdex 75 prep-grade column (Cytiva) and cleaved RARα/γ was separated from the tag based on molecular weight and eluted from the column using SEC Buffer (20 mM Tris-HCl, 300 mM NaCl and 0.5 mM TCEP, pH 8) into 2 mL fractions. The resulting protein fractions were analyzed by SDS PAGE (200 V, 30 min) using SurePAGE Bis-Tris 12% precast gels (Genscript), before being concentrated to 5 mg/mL using centrifugal concentrators (Sartorius) and frozen at −80 °C in small aliquots for use in binding assays.

[1] = 10 nM compound, 5 days, in comparison to nontreated cells

SMILES	induction of neurite outgrowth compared with ATRA (SH-SY5Y cells; 5 days)	Kd (RARα) [µM]	fold induction at 0.01 µM (SH-SY5Y cells; [1])	fold induction at 0.01 µM (SH-SY5Y cells)	binding preference RARα versus RARγ (from K D) (RARα; log-log plot of K D for RARα and RARγ)
COc1cc2c(cc1C#Cc1cc(F)c(C(=O)O)c(F)c1)C(C)(C)CCC2(C)C [Compound 22, 2,6-Difluoro-4-[2-(3-methoxy-5,5,8,8-tetramethyl-5,6,7,8-tetrahydronaphthalen-2-yl)ethynyl]benzoic Acid]	induced neurite outgrowth but not significantly compared to ATRA	0.1 to 1			
COc1cc2c(cc1C#Cc1ccc(C(=O)O)cn1)C(C)(C)CCC2(C)C [Compound 27, 6-[2-(3-Methoxy-5,5,8,8-tetramethyl-5,6,7,8-tetrahydronaphthalen-2-yl)ethynyl]pyridine-3-carboxylic Acid]		> 1	1.7		
Cc1cc2c(cc1C#Cc1ncc(C(=O)O)cn1)C(C)(C)CCC2(C)C [Compound 28, 2-[2-(3,5,5,8,8-Pentamethyl-5,6,7,8-tetrahydronaphthalen-2-yl)ethynyl]pyrimidine-5-carboxylic Acid]	induced neurite outgrowth but not significantly compared to ATRA	0.1 to 1			
CC1(C)CCC(C)(C)c2nc(C#Cc3ccc(C(=O)O)cc3)cnc21 [Compound 30, 4-[2-(5,5,8,8-Tetramethyl-5,6,7,8-tetrahydroquinoxalin-2-yl)ethynyl]benzoic Acid]	significantly induced neurite outgrowth compared to ATRA; also recorded: even higher activity compared to EC23 and GZ25	0.1 to 1	2.3		
CC1(C)CCC(C)(C)c2nc(C#Cc3ccc(C(=O)O)cc3F)cnc21 [Compound 31, 3-Fluoro-4-[2-(5,5,8,8-tetramethyl-5,6,7,8-tetrahydroquinoxalin-2-yl)ethynyl]benzoic Acid]	induced neurite outgrowth but not significantly compared to ATRA	0.1 to 1			
Cc1sc(-c2ccc(C(=O)O)cc2)nc1-c1cnc2c(n1)C(C)(C)CCC2(C)C [Compound 40, 4-[5-Methyl-4-(5,5,8,8-tetramethyl-5,6,7,8-tetrahydroquinoxalin-2-yl)-1,3-thiazol-2-yl]benzoic Acid]		0.1 to 1	1.9		
Cc1sc(-c2ccc(C(=O)O)c(F)c2)nc1-c1cnc2c(n1)C(C)(C)CCC2(C)C [Compound 42, 2-Fluoro-4-[5-methyl-4-(5,5,8,8-tetramethyl-5,6,7,8-tetrahydroquinoxalin-2-yl)-1,3-thiazol-2-yl]benzoic Acid]		0.1 to 1	1.7		
Cc1sc(-c2ccc(C(=O)O)cc2F)nc1-c1cnc2c(n1)C(C)(C)CCC2(C)C [Compound 43, 3-Fluoro-4-[5-methyl-4-(5,5,8,8-tetramethyl-5,6,7,8-tetrahydroquinoxalin-2-yl)-1,3-thiazol-2-yl]benzoic Acid]		> 1	1.8		
Cc1sc(-c2ccc(C(=O)O)cc2)nc1-c1ccc2c(c1)C(C)(C)CCC2(C)C [GZ25, reference compound]	induced significant neurite outgrowth compared to ATRA	0.1 to 1		1.8	bind RARγ stronger than RARα
